Measured values from USRE39593E1 (Gruenenthal GmbH, priority 1994, dated 2007).
Counter-ions that a name gives are not always drawn.

System: phenylquinone-induced writhing reaction
Experiment: Phenylquinone-induced writhing test on mice
Type: in vivo
Conditions: Mus musculus, male NMRI mice; 25 mg/kg per os, 30 min before phenylquinone i.p.
Method: The analgesic effectiveness of the compounds according to the invention was investigated in the phenylquinone-induced writhing test, modified according to I. C. Hendershot, J. Forsaith in J. Pharmacol. Exptl. Ther. 125, 237 (1959), on mice. Male NMRI mice with a weight between 25 and 30 g were used for this purpose. For each dose of substance, each 10 animals received, 30 minutes after the oral administration of a compound according to the invention, 0.3 ml per mouse of an 0.02% aqueous phenylquinone solution (phenylbenzoquinone manufactured by Sigma, Deisenhofen; solution prepared with the addition of 5% ethanol and kept on a water bath at 45° C.) administered intraperitoneally. Thereafter the animals were placed individually in observation cages. The number of pain-induced stretching movements (writhing reaction-straightening of the body with stretching of the rear extremities) was counted with the aid of a push-button counter. The Ed50 value (effective dose with 50% inhibition of writhing reaction) was calculated with a 95% confidence limit by means of regression analysis (evaluation program supplied by Martens EDV-Service, Eckental) from the dose-dependent decrease in the writhing reaction, by comparison with mice tested in parallel to which only phenylquinone had been administered.

| SMILES | inhibition at 25 mg/kg |
| --- | --- |
| CC[C@](O)(c1cccc(O)c1)[C@H](C)CN(C)C (racemic) [(16), (2RS,3RS)-3-(3-dimethylamino-1-ethyl-1-hydroxy-2-methylpropyl)-phenol Hydrochloride] | 100% |
| C[C@@H](CN(C)C)[C@](C)(O)c1cccc(O)c1 [(−17), (−)-(1S,2S)-3-(3-dimethylamino-1-hydroxy-1,2-dimethylpropyl)-phenol Hydrochloride] | 58.3% |
| COc1cccc([C@](C)(O)[C@H](C)CN(C)C)c1 [(+15), Hydrochloride] | 95.2% |
| C[C@H](CN(C)C)[C@@](C)(O)c1cccc(O)c1 [(+17), (+)-(1R,2R)-3-(3-dimethylamino-1-hydroxy-1,2-dimethylpropyl)-phenolhydrochloride] | 97.2% |
| CC[C@](O)(c1cccc(OC(C)C)c1)[C@H](C)CN(C)C (racemic) [(3), (2RS,3RS)-3-(3-isopropoxyphenyl)-1-dimethylamino-2-methylpentan-3-ol Hydrochloride] | 81.3% |

Same assay, conditions: Mus musculus; male NMRI mice; oral administration 30 min before phenylquinone i.p.; dose with 50% inhibition of writhing reaction

| SMILES | ED50 |
| --- | --- |
| CC[C@H](c1cccc(O)c1)[C@H](C)CN(C)C.Cl [(+21), (+)-(1S,2R 2S)-3-(3-dimethylamino-1-ethyl-2-methylpropyl)-phenol hydrochloride] | 1.9 mg/kg |
| CC[C@@](O)(c1cccc(OC)c1)[C@@H](C)CN(C)C [(−1), (−)-(2S,3S)-1-dimethylamino-3-(3-methoxyphenyl)-2-methylpentan-3-ol Hydrochloride] | 22.3 mg/kg |
| COc1cccc([C@](C)(O)[C@H](C)CN(C)C)c1 (racemic) [(15), Hydrochloride] | 3.8 mg/kg |
| CC[C@](O)(c1cccc(OC)c1)[C@H](C)CN(C)C.Cl (racemic) [(1), (2RS,3RS)-1-dimethylamino-3-(3-methoxyphenyl)-2-methylpentan-3-ol Hydrochloride] | 5.8 mg/kg |
| CC[C@](O)(c1ccc2ccoc2c1)[C@H](C)CN(C)C.Cl (racemic) [(10), (2RS,3RS)-3-benzofuran-6-yl-1-dimethylamino-2-methylpentan-3-ol Hydrochloride] | 12.9 mg/kg |
| CCCC(O)(CCN(C)C)c1cccc(OC)c1.Cl (racemic) [(12), (3RS)-1-dimethylamino-3-(3-methoxyphenyl)-hexan-3-ol Hydrochloride] | 19.9 mg/kg |
| CC[C@](O)(c1cccc(SC)c1)[C@H](C)CN(C)C.Cl (racemic) [(9), (2RS,3RS)-1-dimethylamino-2-methyl-3-(3-methylsulphanylphenyl)-pentan-3-ol Hydrochloride] | 12.8 mg/kg |
| CC[C@@](O)(c1cccc(O)c1)[C@@H](C)CN(C)C [(−16), (-) (2S,3S) 1S,2S)-3-(dimethylamino-1-ethyl-1-hydroxy-2-methylpropyl)-phenol Hydrochloride] | 16.1 mg/kg |
| CC[C@](O)(c1cccc(F)c1)[C@H](C)CN(C)C.Cl (racemic) [(7), (2RS, 3RS)-1-dimethylamino-3-(3-fluorophenyl)-2-methylpentan-3-ol Hydrochloride] | 27.3 mg/kg |
| CC[C@](O)(c1cccc(C(F)F)c1)[C@H](C)CN(C)C.Cl (racemic) [(8), (2RS,3RS)-3-(3-difluoromethylphenyl)-1-dimethylamino-2-methylpentan-3-ol Hydrochloride] | 12.9 mg/kg |
| COc1cccc(C(O)(CCN(C)C)C(C)(C)C)c1.Cl (racemic) [(14), (3RS)-1-dimethylamino-3-(3-methoxyphenyl)-4,4-dimethylpentan-3-ol Hydrochloride] | 10.5 mg/kg |
| CC[C@](O)(c1cccc(OC)c1)[C@H](C)CN(C)C [(+1), (+)-(2R,3R)-1-dimethylamino-3-(3-methoxyphenyl)-2-methylpentan-3-ol Hydrochloride] | 1.1 mg/kg |
| CC[C@](F)(c1cccc(O)c1)[C@H](C)CN(C)C.Cl [(+18), (+)-(1R,2R)-3-(3-dimethylamino-1-ethyl-1-fluoro-2-methylpropyl)-phenol Hydrochloride] | 15.7 mg/kg |
| CC[C@](O)(c1cccc(C)c1)[C@H](C)CN(C)C.Cl (racemic) [(6), (2RS,3RS)-1-dimethylamino-2-methyl-3-(3-m-tolyl)-pentan-3-ol Hydrochloride] | 11.8 mg/kg |
| CC[C@](O)(c1ccc(Cl)c(Cl)c1)[C@H](C)CN(C)C.Cl (racemic) [(2), (2RS,3RS)-3-(3,4-dichlorophenyl)-1-dimethylamino-2-methylpentan-3-ol Hydrochloride] | 13.2 mg/kg |
| CC[C@](O)(c1cccc(O)c1)[C@H](C)CN(C)C [(+16), (+) (2S,3S 1R,2R)-3-(dimethylamino-1-ethyl-1-hydroxy-2-methylpropyl)-phenol Hydrochloride] | 1 mg/kg |
| CC[C@](O)(c1cccc(C(F)(F)F)c1)[C@H](C)CN(C)C.Cl (racemic) [(5), (2RS,3RS)-1-dimethylamino-2-methyl-3-(3-trifluoromethylphenyl)-pentan-3-ol Hydrochloride] | 8.3 mg/kg |
| CC[C@](O)(c1cccc(Cl)c1)[C@H](C)CN(C)C.Cl (racemic) [(4), (2RS,3RS)-3-(3-chlorophenyl)-1-dimethylamino-2-methylpentan-3-ol Hydrochloride] | 15.5 mg/kg |
